molecular target: T1, His6-PDK1 (aa 52-556) (Homo sapiens, UniProt O15530); assay: PDK1 kinase assay III (with Tween 20); format: biochemical; conditions: compound at 10 μM; PDK1 kinase assay III (values without asterisk); read-out: % CTL (residual activity of the enzyme relative to DMSO control)
T1 construct: 15 μL His6-PDK1 (aa 52-556) 3.33 ng/well); host or cells: baculovirus-infected insect cells
T1 sequence (O15530 52-556): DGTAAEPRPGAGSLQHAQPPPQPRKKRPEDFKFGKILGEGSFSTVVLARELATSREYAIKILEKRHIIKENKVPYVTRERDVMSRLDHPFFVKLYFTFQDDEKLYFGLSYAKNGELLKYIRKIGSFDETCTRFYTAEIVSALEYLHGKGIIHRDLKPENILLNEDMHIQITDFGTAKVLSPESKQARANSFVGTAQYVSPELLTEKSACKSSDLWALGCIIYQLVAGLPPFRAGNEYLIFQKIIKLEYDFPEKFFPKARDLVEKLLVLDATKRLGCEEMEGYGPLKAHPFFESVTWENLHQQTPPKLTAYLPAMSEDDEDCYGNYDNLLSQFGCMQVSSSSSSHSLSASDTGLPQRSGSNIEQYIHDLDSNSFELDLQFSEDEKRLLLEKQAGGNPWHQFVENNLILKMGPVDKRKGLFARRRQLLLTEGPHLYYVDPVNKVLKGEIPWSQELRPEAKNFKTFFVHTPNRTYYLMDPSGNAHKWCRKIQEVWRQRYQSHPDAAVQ
Method in brief: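 Started with ATP, incubated 90 min at ambient temperature, then stopped with phosphoric acid. Asterisked values come from assay II (24 h or 5 min incubation).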

SMILES | remaining activity at 10 µM
Cc1c(C(=O)NCC#Cc2ccc3nc(Nc4ccc(C(=O)NC5CCN(C)CC5)cc4)ncc3c2)c(=O)n(Cc2ccc(F)c(F)c2)n1C | 11.6%
CN1CCC(Nc2ccc(Nc3ncc4cc(/C=C/CNC(=O)c5cn(C)c(=O)n(Cc6ccc(F)c(F)c6)c5=O)ccc4n3)cc2F)CC1 [IV-43, 3-(3,4-difluorobenzyl)-N-{(2E)-3-[2-({3-fluoro-4-[(1-methylpiperidin-4-yl)amino]-phenyl}amino)quinazolin-6-yl]prop-2-en-1-yl}-1-methyl-2,4-dioxo-1,2,3,4-tetrahydro-pyrimidine-5-carboxamide] | 17.3%
Cc1c(C#CCNC(=O)c2cncn(Cc3ccc(F)c(F)c3)c2=O)c(=O)n(C(C)C)c2nc(Nc3ccc(N4CCOCC4)cc3)ncc12 [III-29, 1-(3,4-difluorobenzyl)-N-{3-[5-methyl-2-{[4-(morpholin-4-yl)phenyl]amino}-7-oxo-8-(propane-2-yl)-7,8-dihydropyrido[2,3-d]pyrimidin-6-yl]prop-2-yn-1-yl}-6-oxo-1,6-dihydropyrimidine-5-carboxamide] | 16.4%
CN1CCC(N(C)c2ccc(Nc3ncc4cc(C#CCNC(=O)c5ccnn(Cc6ccc(F)c(F)c6)c5=O)ccc4n3)cc2)CC1 [III-36, 2-(3,4-difluorobenzyl)-N-{3-[2-({4-[methyl(1-methylpiperidin-4-yl)amino]phenyl}amino)quinazolin-6-yl]prop-2-yn-1-yl}-3-oxo-2,3-dihydropyridazine-4-carboxamide] | 13.2%
Cc1c(C#CCNC(=O)c2c(C)n(C)n(Cc3ccc(F)c(F)c3)c2=O)ccc2nc(Nc3ccccc3)ncc12 | 12.4%
COc1cc(Nc2ncc3cc(/C=C/CNC(=O)c4cncn(Cc5ccc(F)c(F)c5)c4=O)ccc3n2)ccc1C(=O)NC1CCN(C)CC1 | 29%
Cc1c(C(=O)NC/C=C/c2ccc3c(c2)NC(=O)/C3=C\c2cnc[nH]2)c(=O)n(Cc2ccc(F)c(F)c2)n1C [I-17, 2-(3,4-difluorobenzyl)-N-{(2E)-3-[(3Z)-3-(1H-imidazol-5-ylmethylidene)-2-oxo-2,3-dihydro-1H-indol-6-yl]prop-2-en-1-yl}-1,5-dimethyl-3-oxo-2,3-dihydro-1H-pyrazole-4-carboxamide] | 14.3%
Cc1c(C(=O)NCC#Cc2ccc3c(-c4ccc(CN(C)C)cc4)n[nH]c3c2)c(=O)n(Cc2ccc(F)c(F)c2)n1C [II-8, 2-(3,4-difluorobenzyl)-N-[3-(3-{4-[(dimethylamino)methyl]phenyl}-1H-indazol-6-yl)prop-2-yn-1-yl]-1,5-dimethyl-3-oxo-2,3-dihydro-1H-pyrazole-4-carboxamide] | 16.5%

molecular target: T2, ΔPH-PDK1 (aa 51-359; Q66A mutation) (Homo sapiens, UniProt O15530, Q66A); assay: PDK1 kinase assay II (shortened enzyme); format: biochemical; conditions: compound at 10 μM, one asterisk: incubation for 24 h, read-out: % CTL (residual activity of the enzyme relative to DMSO control)
T2 construct: a shortened PDK1 enzyme (aa 51-359; Q66A mutation) is used; His6 (N, cleaved yes)
T2 sequence (O15530 51-359 Q66A): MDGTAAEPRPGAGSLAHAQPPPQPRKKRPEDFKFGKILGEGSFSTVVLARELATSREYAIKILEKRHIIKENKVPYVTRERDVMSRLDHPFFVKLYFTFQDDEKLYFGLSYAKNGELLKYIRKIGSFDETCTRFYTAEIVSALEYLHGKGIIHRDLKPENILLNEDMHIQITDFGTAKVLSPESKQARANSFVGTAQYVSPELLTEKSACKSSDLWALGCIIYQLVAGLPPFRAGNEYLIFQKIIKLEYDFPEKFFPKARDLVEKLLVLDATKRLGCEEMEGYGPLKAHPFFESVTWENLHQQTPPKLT
Description: Another assay was developed in which a shortened PDK1 enzyme (aa 51-359; Q66A mutation) is used that carries in the N-terminal position a His6 tag that is cleaved during purification. (ΔPH-PDK1).
The following components are combined in a well of a 96-well round-based dish (Messrs. Greiner bio-one, No. 650101): • 15 μL of compound to be tested in varying concentrations (e.g. Starting at 10 μM, and diluted in steps of 1:5) in 3.33% DMSO (final concentration 1% DMSO)/assay buffer (50 mM Tris pH 7.5, 0.05% β-mercaptoethanol, 10 mM Mg-acetate) • 15 μL (ΔPH-PDK1; 12 ng/well) and PDKtide ([…]-QEMFRDFDYIADWC) synthesised by Pepceuticals Limited, Nottingham, United Kingdom; 25 μM final concentration); (ΔPH-PDK1 and PDKtide are together diluted accordingly in assay buffer; PDKtide is present in this mixture as an 83.3 μM solution. These 30 […] are incubated for 24 h at RT before ATP solution is added. • 20 μL ATP solution (25 μM ATP with 1.0 μCi/well gamma-P33-ATP)
The reaction is started by adding the ATP solution and the mixture is incubated for 120 min at ambient temperature; at the start of the reaction the dishes are shaken gently. The reaction is stopped by the addition of 50 μL/well of 500 mM phosphoric acid (H3PO4) and incubated for about 20 min at ambient temperature. The precipitate is transferred by harvesting onto filter plates (96-well microtitre filter plate: UniFilter GF/C; Messrs Perkin Elmer; No. 6005174), then washed 6 times with 50 mM H3PO4 and dried at 60° C. Then the plate is stuck down with sealing tape, 25 μL/well of scintillation solution (Microscint 0; Messrs. Perkin Elmer; No. 6013611) are added and the amount of P33 precipitated is measured using the Wallac Betacounter. The measured data are evaluated using Graphpad Prism software.
The % CTL values indicate the residual activity of the enzyme after the addition of the inhibitory compound in the solvent DMSO in relation to the enzyme activity in the solvent DMSO without the addition of a compound (control). The majority of the values were determined using the PDK1 kinase assay III described hereinbefore. The values marked with an asterisk (* or**) were determined using the PDK1 kinase assay II described hereinbefore (one asterisk→incubation for 24 h; two asterisks→incubation for 5 min)

SMILES | remaining activity at 10 µM
CN1CCC(N(C)c2ccc(Nc3ncc4cc(/C=C/CNC(=O)c5cc(Cl)nn(Cc6ccc(F)c(F)c6)c5=O)ccc4n3)cc2)CC1 [IV-40, 6-chloro-2-(3,4-difluorobenzyl)-N-{3-[2-({4-[methyl(1-methylpiperidin-4-yl)amino]phenyl}amino)quinazolin-6-yl]prop-2-en-1-yl}-3-oxo-2,3-dihydropyridazine-4-carboxamide] | 25.4%
CN1CCN(c2ccc(Nc3ncc4cc(/C=C/CNC(=O)c5cncn(Cc6ccc(F)c(F)c6)c5=O)ccc4n3)cc2)CC1 [IV-4, 1-(3,4-difluorobenzyl)-N-[(2E)-3-(2-{[4-(4-methylpiperazin-1-yl)phenyl]-amino}quinazolin-6-yl)prop-2-en-1-yl]-6-oxo-1,6-dihydropyrimidine-5-carboxamide] | 67.3%
Cc1ncc(C(=O)NC/C=C/c2ccc3nc(Nc4ccc(N(C)C5CCN(C)CC5)cc4)ncc3c2)c(=O)n1Cc1ccc(F)c(F)c1 | 5.8%
CN(C)Cc1c[nH]c(/C=C2\C(=O)Nc3cc(/C=C/CNC(=O)c4cncn(Cc5ccc(F)c(F)c5)c4=O)ccc32)c1 [I-15, 1-(3,4-difluorobenzyl)-N-{(2E)-3-[(3Z)-3-({4-[(dimethylamino)methyl]-1H-pyrrol-2-yl}methylidene)-2-oxo-2,3-dihydro-1H-indol-6-yl]prop-2-en-1-yl}-6-oxo-1,6-dihydropyrimidine-5-carboxamide] | 15.7%
Cc1c(C(=O)NCC#Cc2ccc3nc(Nc4ccc(C(=O)NCCO)cc4)ncc3c2)c(=O)n(Cc2ccc(F)c(F)c2)n1C | 12.1%
Cc1c(C#CCNC(=O)c2c(C)n(C)n(Cc3ccc(F)c(F)c3)c2=O)c(=O)n(C(C)C)c2nc(Nc3ccc(N4CCOCC4)cc3)ncc12 [III-28, 2-(3,4-difluorobenzyl)-1,5-dimethyl-N-{3-[5-methyl-2-{[4-(morpholin-4-yl)phenyl]amino}-7-oxo-8-(propane-2-yl)-7,8-dihydropyrido[2,3-d]pyrimidin-6-yl]prop-2-yn-1-yl}-3-oxo-2,3-dihydro-1H-pyrazole-4-carboxamide] | 13.8%
CN1CCC(Nc2ccc(Nc3ncc4cc(C#CCNC(=O)c5cncn(Cc6ccc(F)c(F)c6)c5=O)ccc4n3)cc2F)CC1 [III-31, 1-(3,4-difluorobenzyl)-N-{3-[2-({3-fluoro-4-[(1-methylpiperidin-4-yl)amino]-phenyl}amino)quinazolin-6-yl]prop-2-yn-1-yl}-6-oxo-1,6-dihydropyrimidine-5-carboxamide] | 6.5%
Cc1nc[nH]c1/C=C1\C(=O)Nc2cc(/C=C/CNC(=O)c3c(C)n(C)n(Cc4ccc(F)c(F)c4)c3=O)ccc21 [I-18, 2-(3,4-difluorobenzyl)-1,5-dimethyl-N-[(2E)-3-{(3Z)-3-[(4-methyl-1H-imidazol-5-yl)methylidene]-2-oxo-2,3-dihydro-1H-indol-6-yl}prop-2-en-1-yl]-3-oxo-2,3-dihydro-1H-pyrazole-4-carboxamide] | 6.6%
CC(=O)Nc1ccc(Nc2ncc3cc(/C=C/CNC(=O)c4cncn(Cc5ccc(F)c(F)c5)c4=O)ccc3n2)cc1 [IV-47, N-[(2E)-3-(2-{[4-(acetylamino)phenyl]amino}quinazolin-6-yl)prop-2-en-1-yl]-1-(3,4-difluorobenzyl)-6-oxo-1,6-dihydropyrimidine-5-carboxamide] | 16.6%
Cc1c(C(=O)NC/C=C/c2cc(OC3CCNCC3)c3nc(Nc4ccc(N5CCOCC5)cc4)ncc3c2)c(=O)n(Cc2ccc(F)c(F)c2)n1C | 8.9%

same assay, conditions: compound at 10 μM, two asterisks: incubation for 5 min, read-out: % CTL (residual activity of the enzyme relative to DMSO control)

SMILES | remaining activity at 10 µM
CN(C)Cc1ccc(Nc2ncc3cc(C#CCNC(=O)c4cn(C)c(=O)n(Cc5ccc(F)c(F)c5)c4=O)ccc3n2)cc1 [III-21, 3-(3,4-difluorobenzyl)-N-{3-[2-({4-[(dimethylamino)methyl]phenyl}amino)-quinazolin-6-yl]prop-2-yn-1-yl}-1-methyl-2,4-dioxo-1,2,3,4-tetrahydropyrimidine-5-carboxamide] | 33%
